{
  "source": "patent US9730890B2",
  "about": "“Bronchodilating beta-agonist compositions and methods” (Mylan Specialty L.P., priority 2003, dated 2017)",
  "assay": "Decomposition rate constant (kobs) of formoterol in aqueous solution",
  "assay_type": "physicochemical",
  "conditions": "for rate constant (kobs) for decomposition: aqueous solution, 60° C., ionic strength 0.05",
  "excerpt": "In the embodiments herein, the compositions have a pH of about 2.0 to about 8.0, or 2.0 to 8.0. In other embodiments, the compositions have a pH of about 4.0 to about 6.0, or 4.0 to 6.0. In other embodiments, the pH is about 4.5 to about 5.5, or 4.5 to 5.5. In certain of the above embodiments, the compositions are formulated at a pH of about 4, 4.4 or 4.6 up to about 5.5, 5.7 or 6; or 4, 4.4 or 4.6 up to 5.5, 5.7 or 6. In other embodiments, the pH is about 5.0, or 5.0. […] The rate constant (kobs) at 60° C. at a pH of 3, 4, 5 and 7 is approximately 0.62, 0.11, 0.044 and 0.55 day^-1, respectively.\nIn other of the above embodiments, the compositions further contain a buffer, including, but not limited to, citric acid/phosphate, acetate, barbital, borate, Britton-Robinson, cacodylate, citrate, collidine, formate, maleate, McIlvaine, phFosphate, Prideaux-Ward, succinate, citrate-phosphate-borate (Teorell-Stanhagen), veronal acetate, MES (2-(N-morpholino)ethanesulfonic acid), BIS-TRIS (bis(2-hydroxyethyl)imino-tris-(hydroxymethyl)methane), ADA (N-(2-acetamido)-2-iminodiacetic acid), ACES (N-(carbamoylmethyl)-2-aminoethanesulfonic acid), PIPES (piperazine-N,N′-bis(2-ethanesulfonic acid)), MOPSO (3-(N-morpholino)-2-hydroxypropanesulfonic acid), BISTRIS PROPANE (1,3-bis(tris(hydroxymethyl)methylamino)propane), BES (N,N-bis(2-hydroxyethyl)-2-aminoethanesulfonic acid), MOPS (3-(N-morpholino)propanesulfonic acid), TES (N-tris(hydroxymethyl)methyl-2-aminoethanesulfonic acid), HEPES (N-(2-hydroxyethyl)-piperazine-N′-(2-eth-anesulfonic acid), DIPSO (3-(N,N-bis(2-hydroxyethyl)amino)-2-hydroxypropan-esulfonic acid), MOBS (4-(N-morpholino)-butanesulfonic acid), TAPSO (3-(N-tris(hydroxymethyl)methylamino)-2-hydroxypropanesulfonic acid), TRIZMA® (tris(hydroxymethylaminomethane), HEPPSO(N-(2-hydroxyethyl)piperazine-N′-(2-hydroxypropanesulfonic acid), POPSO (piperazine-N,N′-bis(2-hydroxypropanesulfonic acid)), TEA (triethanolamine), EPPS (N-(2-hydroxyethyl)piperazine-N′-(3-propanesulfon-ic acid), TRICINE (N-tris(hydroxy-methyl)methylglycine), GLY-GLY (glycylglycine), BICINE (N,N-bis(2-hydroxyethyl)glycine), HEPBS (N-(2-hydroxyethyl)piperazine-N′-(4-butanesulfonic acid)), TAPS(N-tris(hydroxymethyl)methyl-3-aminopropanesulfonic acid), AMPD (2-amino-2-methyl-1,3-propanediol), and/or any other buffers known to those of skill in the art. In one embodiment, the buffer is citric acid/phosphate buffer, acetate buffer, citrate buffer or phosphate buffer. In another embodiment, the buffer is a citrate buffer (citric acid/sodium citrate). […] Buffer concentrations for use include from about 0 or 0.01 mM to about 150 mM, or 0 or 0.01 mM to 150 mM. In another embodiment, the buffer concentration is about 1 mM to about 20 mM, or 1 mM to 20 mM. In one embodiment, the buffer concentration is about 5 mM, or 5 mM. In other embodiments, the buffer concentration is about 1 mM to about 50 mM, or 1 mM to 50 mM. […] The particular buffer and buffer concentration of a given composition for long term storage provided herein may be determined empirically using standard stability assays well known to those of skill in the art (see, e.g., the Examples).\nIonic strengths of the compositions provided herein are from about 0 to about 0.4, or 0 to 0.4. […] The particular ionic strength of a given composition for long term storage provided herein may be determined empirically using standard stability assays well known to those of skill in the art (see, e.g., the Examples). […]",
  "data": [
    {"compound": "COc1ccc(CC(C)NCC(O)c2ccc(O)c(NC=O)c2)cc1", "note": "(racemic) [formoterol, 2-hydroxy-5-((1RS)-1-hydroxy-2-(((1RS)-2-(p-methoxyphenyl)-1-methylethyl)amino)ethyl)formanilide]", "values": [
      {"measurement": "rate constant (kobs) for decomposition", "setting": "pH 3, buffer concentration 5 mM", "value": "approximately 0.62 day^-1"},
      {"measurement": "rate constant (kobs) for decomposition", "setting": "pH 4, buffer concentration 5 mM", "value": "~0.11", "unit": "day⁻¹"},
      {"measurement": "rate constant (kobs) for decomposition", "setting": "pH 5, buffer concentration 5 mM", "value": "~0.044", "unit": "day⁻¹"},
      {"measurement": "rate constant (kobs) for decomposition", "setting": "pH 7, buffer concentration 5 mM", "value": "~0.55", "unit": "day⁻¹"},
      {"measurement": "effect of buffer concentration on rate constant of decomposition", "setting": "pH region of about 4.5 to about 5.5, buffer concentration from 5 mM to 20 mM", "value": "no noticeable differences in rate constant"}
    ]}
  ]
}
